For orientation: Ki means the equilibrium dissociation constant of an inhibitor or competing ligand from its target.

Counter-ions that a name gives are not always drawn.

The results in this text go back to patent US8344008B2 (Janssen Pharmaceutica NV, priority 2007, dated 2013).

The target of the test is T1, recombinant human LTA4 hydrolase (rhLTA4H) (Homo sapiens, UniProt P09960).
T1 construct: made in house; host or cells: Spodoptera frugiperda (Sf-9) cells, baculovirus (pFastBac1)
T1 sequence (P09960 1-611): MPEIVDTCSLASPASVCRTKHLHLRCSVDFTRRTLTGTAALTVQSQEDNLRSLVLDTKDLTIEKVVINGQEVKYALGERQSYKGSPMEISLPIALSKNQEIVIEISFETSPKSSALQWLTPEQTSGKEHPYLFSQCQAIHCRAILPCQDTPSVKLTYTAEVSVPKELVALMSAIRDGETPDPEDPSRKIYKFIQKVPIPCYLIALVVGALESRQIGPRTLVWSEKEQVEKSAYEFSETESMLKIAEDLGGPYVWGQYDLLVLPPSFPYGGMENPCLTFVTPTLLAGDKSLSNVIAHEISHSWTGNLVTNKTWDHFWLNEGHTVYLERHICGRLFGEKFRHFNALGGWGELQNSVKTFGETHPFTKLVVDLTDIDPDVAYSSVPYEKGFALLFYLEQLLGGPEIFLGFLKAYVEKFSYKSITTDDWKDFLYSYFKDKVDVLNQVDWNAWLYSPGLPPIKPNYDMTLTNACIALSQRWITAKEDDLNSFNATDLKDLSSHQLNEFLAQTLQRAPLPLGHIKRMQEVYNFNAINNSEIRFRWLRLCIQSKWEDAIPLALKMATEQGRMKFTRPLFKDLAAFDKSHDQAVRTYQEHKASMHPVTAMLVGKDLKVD
Briefly: Recombinant Human LTA4 Hydrolase Assay for LTA4 Hydrolase Inhibitor Activity. To be noted: average of results obtained; LTB4 quantified by enzyme-linked immunoassay. The test is classed as biochemical. Summed up:
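Baculovirus/Sf-9-expressed human LTA4 hydrolase (36 ng) preincubated with compound 10 min at rt in 0.1 M potassium phosphate pH 7.4, 5 mg/mL fatty-acid-free BSA. Reaction started with 9 ng LTA4 free acid, run 10 min at rt; LTB4 measured by enzyme immunoassay, IC50 from 4-parameter fit.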

On to `CC(=O)N[C@H]1C[C@H]2CC[C@@H](C1)N2Cc1ccc(Oc2nc3c(Cl)cccc3s2)cc1` [Example 71, meso-endo-N-{8-[4-(4-Chloro-benzothiazol-2-yloxy)-benzyl]-8-aza-bicyclo[3.2.1]oct-3-yl}-acetamide], for which the Ki was determined as 25 nM. The figure for `Cc1ccc2nc(Oc3ccc(CCN[C@@H]4C[C@H]5CC[C@@H](C4)N5C(N)=O)cc3)sc2c1` [Example 173, meso-exo-3-{2-[4-(6-Methyl-benzothiazol-2-yloxy)-phenyl]-ethylamino}-8-aza-bicyclo[3.2.1]octane-8-carboxylic acid amide] is 973 nM; for `CS(=O)(=O)N1C[C@H]2C[C@@H]1CN2CCOc1ccc(Oc2nc3cc(F)ccc3s2)cc1` [Example 168, (R,R)-5-Fluoro-2-{4-[2-(5-methanesulfonyl-2,5-diaza-bicyclo[2.2.1]hept-2-yl)-ethoxy]-phenoxy}-benzothiazole] it is 128 nM; for `CC(=O)N1C[C@H]2C[C@@H]1CN2CCOc1ccc(Oc2nc3cccc(F)c3s2)cc1` [Example 249, (R,R)-1-(5-{2-[4-(7-Fluoro-benzothiazol-2-yloxy)-phenoxy]-ethyl}-2,5-diaza-bicyclo[2.2.1]hept-2-yl)-ethanone] it is 11 nM. `CS(=O)(=O)N[C@H]1C[C@H]2CC[C@@H](C1)N2CCOc1ccc(Oc2nc3ccc(Cl)cc3s2)cc1` [Example 222, meso-endo-N-(8-{2-[4-(6-Chloro-benzothiazol-2-yloxy)-phenoxy]-ethyl}-8-aza-bicyclo[3.2.1]oct-3-yl)-methanesulfonamide]: the Ki amounted to 130 nM. Consider `NC(=O)N[C@@H]1C[C@H]2CC[C@@H](C1)N2CCc1ccc(Oc2nc3cc(Cl)ccc3s2)cc1` [Example 202, meso-exo-(8-{2-[4-(5-Chloro-benzothiazol-2-yloxy)-phenyl]-ethyl}-8-aza-bicyclo[3.2.1]oct-3-yl)-urea], for which the Ki stood at 127 nM. On to `CS(=O)(=O)N1[C@@H]2CC[C@H]1C[C@@H](NCCc1ccc(Oc3nc4c(F)cccc4s3)cc1)C2` [Example 279, meso-endo-{2-[4-(4-Fluoro-benzothiazol-2-yloxy)-phenyl]-ethyl}-(8-methanesulfonyl-8-aza-bicyclo[3.2.1]oct-3-yl)-amine], for which the Ki was determined as 21 nM. Under `CS(=O)(=O)N1C[C@H]2C[C@@H]1CN2CCc1ccc(Oc2nc3cccc(Cl)c3s2)cc1` [Example 192, (R,R)-7-Chloro-2-{4-[2-(5-methanesulfonyl-2,5-diaza-bicyclo[2.2.1]hept-2-yl)-ethyl]-phenoxy}-benzothiazole] stands more than 10000 nM; under `c1ccc2sc(Oc3ccc(CN4CC5CCNC5C4)cc3)nc2c1` (stereo not drawn) [Example 81, 2-[4-(Hexahydro-pyrrolo[3,4-b]pyrrol-5-ylmethyl)-phenoxy]-benzothiazole hydrochloride], 162 nM; under `NC(=O)N1[C@@H]2CC[C@H]1C[C@@H](NCc1ccc(Oc3nc4c(F)cccc4s3)cc1)C2` [Example 198, meso-endo-3-[4-(4-Fluoro-benzothiazol-2-yloxy)-benzylamino]-8-aza-bicyclo[3.2.1]octane-8-carboxylic acid amide], 9 nM. `O=C(C1CC1)N1CC2CN(Cc3ccc(Oc4nc5ccccc5s4)cc3)CC2C1` (stereo not drawn) [Example 111, {5-[4-(Benzothiazol-2-yloxy)-benzyl]-hexahydro-pyrrolo[3,4-c]pyrrol-2-yl}-cyclopropyl-methanone]: the Ki is 10 nM. Turning to `CS(=O)(=O)N1CC2CCN(Cc3ccc(Oc4nc5ccccc5s4)cc3)C2C1` (stereo not drawn) [Example 128, 2-[4-(5-Methanesulfonyl-hexahydro-pyrrolo[3,4-b]pyrrol-1-ylmethyl)-phenoxy]-benzothiazole], the Ki is 120 nM.

As for `NC(=O)N[C@H]1C[C@H]2CC[C@@H](C1)N2Cc1ccc(Oc2nc3ccccc3s2)cc1` [Example 60, meso-endo-{8-[4-(Benzothiazol-2-yloxy)-benzyl]-8-aza-bicyclo[3.2.1]oct-3-yl}-urea], the Ki came out at 2 nM. `O=C(c1ccc[nH]1)N1C[C@@H]2C[C@H]1CN2CCOc1ccc(Oc2nc3ccccc3s2)cc1` [Example 65, (S,S)-(5-{2-[4-(Benzothiazol-2-yloxy)-phenoxy]-ethyl}-2,5-diaza-bicyclo[2.2.1]hept-2-yl)-(1H-pyrrol-2-yl)-methanone]: the Ki came to 64 nM. `NC(=O)N1C[C@H]2C[C@@H]1CN2CCc1ccc(Oc2nc3cccc(F)c3s2)cc1` [Example 245, (R,R)-5-{2-[4-(7-Fluoro-benzothiazol-2-yloxy)-phenyl]-ethyl}-2,5-diaza-bicyclo[2.2.1]heptane-2-carboxylic acid amide]: the Ki was 12 nM. The figure for `CS(=O)(=O)N1C[C@H]2C[C@@H]1CN2Cc1ccc(Oc2nc3cccc(F)c3s2)cc1` [Example 189, (R,R)-7-Fluoro-2-[4-(5-methanesulfonyl-2,5-diaza-bicyclo[2.2.1]hept-2-ylmethyl)-phenoxy]-benzothiazole] is 375 nM. Under `O=S(=O)(c1ccsc1)N1CC2CN(Cc3ccc(Oc4nc5ccccc5s4)cc3)CC2C1` (stereo not drawn) [Example 125, 2-{4-[5-(Thiophene-3-sulfonyl)-hexahydro-pyrrolo[3,4-c]pyrrol-2-ylmethyl]-phenoxy}-benzothiazole] stands 3620 nM; under `Cn1ccc(S(=O)(=O)N2CC3CN(Cc4ccc(Oc5nc6ccccc6s5)cc4)CC3C2)c1` (stereo not drawn) [Example 123, 2-{4-[5-(1-Methyl-1H-pyrrole-3-sulfonyl)-hexahydro-pyrrolo[3,4-c]pyrrol-2-ylmethyl]-phenoxy}-benzothiazole], 97 nM; under `CC(=O)N1[C@@H]2CC[C@H]1C[C@@H](NCc1ccc(Oc3nc4ccc(F)cc4s3)cc1)C2` [Example 175, meso-endo-1-{3-[4-(6-Fluoro-benzothiazol-2-yloxy)-benzylamino]-8-aza-bicyclo[3.2.1]oct-8-yl}-ethanone], 53 nM. The figure for `CS(=O)(=O)N[C@@H]1C[C@H]2CC[C@@H](C1)N2CCOc1ccc(Oc2nc3cccc(F)c3s2)cc1` [Example 251, meso-exo-N-(8-{2-[4-(7-Fluoro-benzothiazol-2-yloxy)-phenoxy]-ethyl}-8-aza-bicyclo[3.2.1]oct-3-yl)-methanesulfonamide] is 33 nM.

With `CS(=O)(=O)N1CC2CCC(C1)N2CCOc1ccc(Oc2nc3cc(Cl)ccc3s2)cc1` [Example 256, meso-5-Chloro-2-{4-[2-(3-methanesulfonyl-3,8-diaza-bicyclo[3.2.1]oct-8-yl)-ethoxy]-phenoxy}-benzothiazole], the Ki turned out to be 1710 nM. The figure for `CS(=O)(=O)N1[C@@H]2CC[C@H]1C[C@H](NCc1ccc(Oc3nc4cc(Cl)ccc4s3)cc1)C2` [Example 185, meso-exo-[4-(5-Chloro-benzothiazol-2-yloxy)-benzyl]-(8-methanesulfonyl-8-aza-bicyclo[3.2.1]oct-3-yl)-amine] is 965 nM; for `NC(=O)N1[C@@H]2CC[C@H]1C[C@H](NCCc1ccc(Oc3nc4c(F)cccc4s3)cc1)C2` [Example 212, meso-exo-3-{2-[4-(4-Fluoro-benzothiazol-2-yloxy)-phenyl]-ethylamino}-8-aza-bicyclo[3.2.1]octane-8-carboxylic acid amide] it is 248 nM; for `CC(=O)N1[C@@H]2CC[C@H]1C[C@H](NCCc1ccc(Oc3nc4ccc(F)cc4s3)cc1)C2` [Example 209, meso-exo-1-(3-{2-[4-(6-Fluoro-benzothiazol-2-yloxy)-phenyl]-ethylamino}-8-aza-bicyclo[3.2.1]oct-8-yl)-ethanone] it is 69 nM. As to `O=C(C1CCOC1)N1CC2CN(Cc3ccc(Oc4nc5ccccc5s4)cc3)CC2C1` (stereo not drawn) [Example 102, {5-[4-(Benzothiazol-2-yloxy)-benzyl]-hexahydro-pyrrolo[3,4-c]pyrrol-2-yl}-(tetrahydro-furan-3-yl)-methanone], the Ki turned out to be 46 nM. The figure for `CC(=O)N1CCC2CN(Cc3ccc(Oc4nc5ccccc5s4)cc3)CC2C1` (stereo not drawn) [Example 89, 1-{2-[4-(Benzothiazol-2-yloxy)-benzyl]-octahydro-pyrrolo[3,4-c]pyridin-5-yl}-ethanone] is 6 nM; for `NC(=O)N[C@H]1C[C@H]2CC[C@@H](C1)N2Cc1ccc(Cc2nc3ccccc3s2)cc1` [Example 36, meso-endo-[8-(4-Benzothiazol-2-ylmethyl-benzyl)-8-aza-bicyclo[3.2.1]oct-3-yl]-urea] it is 94 nM. Under `COCC(=O)N1C[C@@H]2C[C@H]1CN2CCc1ccc(Oc2nc3ccccc3s2)cc1` [Example 42] stands 34 nM; under `CC(=O)N1C[C@@H]2C[C@H]1CN2Cc1ccc(Oc2nc3c(F)cccc3s2)cc1` [Example 207, (S,S)-1-{5-[4-(4-Fluoro-benzothiazol-2-yloxy)-benzyl]-2,5-diaza-bicyclo[2.2.1]hept-2-yl}-ethanone], 6 nM; under `CS(=O)(=O)N[C@@H]1C[C@H]2CC[C@@H](C1)N2CCOc1ccc(Oc2nc3cc(Cl)ccc3s2)cc1` [Example 265, meso-exo-N-(8-{2-[4-(5-Chloro-benzothiazol-2-yloxy)-phenoxy]-ethyl}-8-aza-bicyclo[3.2.1]oct-3-yl)-methanesulfonamide], 310 nM.
